# System: human prostatic carcinoma cells, PC-3 (subcutaneous xenografts)
# Experiment: subcutaneous PC-3 xenografts in nude mice, tumor volume
# Assay type: in vivo, NCr athymic nude mice
# Procedure: Pathogen-free 4 to 6 week-old male NCr athymic nude mice (Taconic, Germantown, N.Y.) were housed in sterilized, filter-topped cages kept in laminar flow isolators (Forma Scientific, Marietta, Ohio), and fed autoclaved food and water ad libitum. Four animals were housed in each cage. Mice were acclimated to the vivarium for one week prior to their use in study protocols. All procedures involving the mice were performed under sterile conditions in a laminar flow hood (Forma Scientific). All studies were approved by the institutional animal care and use committee.
# Human PC-3 prostate cancer cells (2×10^6 cells; American Type Culture Collection CRL-1435) were inoculated subcutanteously into the flanks of nude mice in 0.1 ml HBSS (Hank's balanced salt solution) (Life Technologies). For implantation of orthotopic 201T cells, animals were fully anesthetized in a Harvard small animal anesthesia chamber using nebulized Metafane (Pitman Moore, Inc., Washington Crossing, N.J.). […] The needle was advanced through the chest wall into the lung tissue, and the tumor cell inoculum of 2×10^6 cells was then dispersed in a final volume of 0.1 ml HBSS/Matrigel (1:1 ratio). Animals were allowed to recover from anesthesia for approximately 10 min under heat lamps to maintain body temperature. The orthotopic implantation technique is further described in Hamide et al., 1997. For tumors implanted subcutaneously, tumors were measured in a blind fashion with dial calipers, and the volume was calculated using the formula ½*π(W*L*H).
# Potential anti-angiogenic and anti-tumor effects of the PAF antagonist BN-50730 were tested on human tumor xenografts in the NCr athymic nude mice. Thirty mice were implanted with subcutaneous human prostatic carcinoma cells, PC-3, at day 0, and were randomized into three groups. Mice were treated either with a placebo, 30 mg/kg BN-50730, or 60 mg/kg BN-50730 at days 2, 4, 6, 8, 10, and 12 as shown in the schedule of FIG. 2b. Animals were sacrificed at day 13, 17, 21 and 28, and the volumes of the subcutaneous tumors were measured using dial calipers and the formula ½*π(W*L*H) as described in Example 1.
# In a separate experiment to determine the effects of a high dose of LAU-8080 dissolved in 2-hydroxypropyl-β-cyclodextran (instead of DMSO) on PC-3 xenografts, mice were treated as shown in FIG. 4b. Tumors were implanted subcutaneously at day 0. The mice were then divided into two groups to receive injections of either a placebo or 120 mg/kg LAU-8080 on days 1, 3, 5, 8, 10, and 12. Mice were sacrificed on days 6, 8, 11, 13, 15, 18, 20, 21, and 25; and the volumes of the tumors were measured as described above.
# Tumors were implanted at day 0. The tumors were allowed to expand to 100 mm^3 before treatment was initiated as shown in the schedule in FIG. 10b. Tumor measurements were begun on day 9. Treatments of the different groups were on days 13, 15, 17, 20, 22, 24, 27, 29, and 31. Tumor measurements were taken on days 13, 16, 20, 24, 27, 31, 37, and 40.
smiles,measurement,setting,value
"COc1ccc(NC(=O)N2CCc3c(sc4c3C(c3ccccc3Cl)=NCc3nnc(C)n3-4)C2)cc1 [BN-50730, tetrahydro-4,7,8,10 methyl-1 (chloro-2 phenyl)-6 (methoxy-4 phenyl-carbomoyl)-9 pyrido [4′,3′-4,5] thieno [3,2-f] triazolo-1,2,4[4,3-α]diazepine-1,4]",tumor size (volume) of subcutaneous PC-3 xenografts,"30 mg/kg or 60 mg/kg at days 2, 4, 6, 8, 10, 12, measured day 13, 17, 21, 28, vs placebo, p<0.001",significant dose-dependent reduction in tumor size
same,"tumor volume of subcutaneous PC-3 xenografts, high dose","120 mg/kg in 2-hydroxypropyl-β-cyclodextran on days 1, 3, 5, 8, 10, 12, vs placebo, p=0.0001, F-test",significantly smaller tumors
same,time at which tumors began to increase in size,"120 mg/kg on days 1, 3, 5, 8, 10, 12, PC-3 xenografts",did not begin to increase in size until after treatment was stopped at day 12
same,"tumor size, BN-50730-treated vs IFN-2a-treated mice","established PC-3 xenografts, 120 mg/kg vs 1,000 U, p=0.089, F-test",no significant difference
same,tumor size of established PC-3 xenografts vs control animals,"tumors expanded to 100 mm^3 before treatment, treatment days 13-31, 120 mg/kg BN-50730 and/or 1,000 U IFN-2a, p<0.001, F-test",significantly smaller tumors

# Source: patent publication US6979682B2, “Platelet-activating factor antagonist inhibition of angiogenesis and tumor growth induced by basic fibroblast” (Board of Supervisors of Louisiana State University and …, priority 2001, dated 2005)
